Measured values: ChEMBL document CHEMBL1143789, “Synthesis and biological study of medicinally important Mannich bases derived from 4-(dimethylamino)-1,4,4a,5,5a,6,11,12a-octahydro-3,6,10,12,12a pentahydroxy naphthacene carboxamide” (Bioorg Med Chem Lett, 2007)

Columns and labels:
[1] = tested on: Salmonella enteritidis; test: Antibacterial activity against Salmonella enteritidis at 40 mg/ml by paper disc method; type: functional, Salmonella enterica subsp. enterica serovar Enteritidis; settings: Salmonella enterica; read-out: IZ
[2] = tested on: Mus musculus; test: Toxicity in mouse at 1000 mg/kg, ip after 72 hrs; type: organism-based; design: dose 1000 mg/kg, route intraperitoneal; settings: in vivo
[3] = tested on: Pasteurella multocida; test: Antibacterial activity against Pasteurella multocida at40 mg/ml by paper disc method; type: functional
[4] = tested on: Mus musculus; test: Toxicity in mouse at 1600 mg/kg, po after 72 hrs; type: organism-based; design: dose 1600 mg/kg, route oral; settings: in vivo
[5] = tested on: Pasteurella multocida; test: Antibacterial activity against Pasteurella multocida at 30 mg/ml by paper disc method; type: functional; settings: read-out: IZ
[6] = tested on: Salmonella enteritidis; test: Antibacterial activity against Salmonella enteritidis at 20 mg/ml by paper disc method; type: functional, Salmonella enterica subsp. enterica serovar Enteritidis; settings: Salmonella enterica; read-out: IZ
[7] = tested on: Pasteurella multocida; test: Antibacterial activity against Pasteurella multocida at 20 mg/ml by paper disc method; type: functional; settings: read-out: IZ
[8] = tested on: Salmonella enteritidis; test: Antibacterial activity against Salmonella enteritidis at 30 mg/ml by paper disc method; type: functional, Salmonella enterica subsp. enterica serovar Enteritidis; settings: Salmonella enterica; read-out: IZ

Which results are given for `CN(C)C1C(O)=C(C(=O)NCNc2ccc(S(=O)(=O)Nc3ncccn3)cc2)C(=O)C2(O)C(O)=C3C(=O)c4c(O)cccc4C(C)(O)C3CC12` (configuration not stated)?
zone of inhibition at 40000 µg/mL [1]: 21.2 mm; Activity [2]: Toxic; inhibition zone (IZ) [3]: 21.86 mm; Activity [4]: Non-toxic; zone of inhibition at 30000 µg/mL [5]: 20.8 mm; zone of inhibition at 20000 µg/mL [6]: 20 mm; zone of inhibition at 20000 µg/mL [7]: 20.4 mm; zone of inhibition at 30000 µg/mL [8]: 20.9 mm

Which results are given for `CN(C)C1C(O)=C(C(=O)NCNc2ccc(S(N)(=O)=O)cc2)C(=O)C2(O)C(O)=C3C(=O)c4c(O)cccc4C(C)(O)C3CC12` (configuration not stated)?
zone of inhibition at 40000 µg/mL [1]: 16 mm; Activity [2]: Toxic; inhibition zone (IZ) [3]: 29.08 mm; Activity [4]: Non-toxic; zone of inhibition at 30000 µg/mL [5]: 28.6 mm; zone of inhibition at 20000 µg/mL [6]: 14.7 mm; zone of inhibition at 20000 µg/mL [7]: 28.4 mm; zone of inhibition at 30000 µg/mL [8]: 15 mm

For `COc1ncnc(NS(=O)(=O)c2ccc(NCNC(=O)C3=C(O)C(N(C)C)C4CC5C(=C(O)C4(O)C3=O)C(=O)c3c(O)cccc3C5(C)O)cc2)c1OC` (configuration not stated), which zone of inhibition at 40000 µg/mL [1] is on record?
The zone of inhibition at 40000 µg/mL was 15.5 mm.

And the Activity [2]?
The Activity was “Toxic”.

And the “inhibition zone (IZ)” value [3]?
The value was 24.4 mm.

And the Activity [4]?
The Activity was “Non-toxic”.

What about the zone of inhibition at 30000 µg/mL [5] of the same compound?
Its zone of inhibition at 30000 µg/mL is 23.3 mm.

What about the zone of inhibition at 20000 µg/mL [6] of the same compound?
Its zone of inhibition at 20000 µg/mL is 15 mm.

And the zone of inhibition at 20000 µg/mL [7]?
The zone of inhibition at 20000 µg/mL was 22.1 mm.

What about the zone of inhibition at 30000 µg/mL [8] of the same compound?
Its zone of inhibition at 30000 µg/mL is 15.2 mm.

What does the source list for `CC(=O)NS(=O)(=O)c1ccc(NCNC(=O)C2=C(O)C(N(C)C)C3CC4C(=C(O)C3(O)C2=O)C(=O)c2c(O)cccc2C4(C)O)cc1` (configuration not stated)?
Activity [2]: Toxic; inhibition zone (IZ) [3]: 28.3 mm; Activity [4]: Non-toxic; zone of inhibition at 30000 µg/mL [5]: 27.3 mm; zone of inhibition at 20000 µg/mL [7]: 26.2 mm

Which zone of inhibition at 40000 µg/mL [1] does the source give for `Cc1cc(NS(=O)(=O)c2ccc(NCNC(=O)C3=C(O)C(N(C)C)C4CC5C(=C(O)C4(O)C3=O)C(=O)c3c(O)cccc3C5(C)O)cc2)no1` (configuration not stated) here?
Its zone of inhibition at 40000 µg/mL is 22.1 mm.

And the Activity [2]?
Its Activity is “Toxic”.

And the “inhibition zone (IZ)” value [3]?
The value was 23.2 mm.

What about the Activity [4] of the same compound?
Its Activity is “Non-toxic”.

What about the zone of inhibition at 30000 µg/mL [5] of the same compound?
The zone of inhibition at 30000 µg/mL was 22 mm.

What about the zone of inhibition at 20000 µg/mL [6] of the same compound?
The zone of inhibition at 20000 µg/mL was 21.1 mm.

What about the zone of inhibition at 20000 µg/mL [7] of the same compound?
The zone of inhibition at 20000 µg/mL was 21.3 mm.

What about the zone of inhibition at 30000 µg/mL [8] of the same compound?
The zone of inhibition at 30000 µg/mL was 21.2 mm.

For `CN(C)C1C(O)=C(C(=O)NCNc2ccc(S(=O)(=O)NC(=N)N)cc2)C(=O)C2(O)C(O)=C3C(=O)c4c(O)cccc4C(C)(O)C3CC12` (configuration not stated), which zone of inhibition at 40000 µg/mL [1] is on record?
The zone of inhibition at 40000 µg/mL was 14.2 mm.

And the Activity [2]?
The Activity was “Toxic”.

What about the “inhibition zone (IZ)” value [3] of the same compound?
The value was 25.2 mm.

What about the Activity [4] of the same compound?
Its Activity is “Non-toxic”.

What about the zone of inhibition at 30000 µg/mL [5] of the same compound?
The zone of inhibition at 30000 µg/mL was 24.3 mm.

And the zone of inhibition at 20000 µg/mL [6]?
Its zone of inhibition at 20000 µg/mL is 13.2 mm.

What about the zone of inhibition at 20000 µg/mL [7] of the same compound?
Its zone of inhibition at 20000 µg/mL is 24.1 mm.

What about the zone of inhibition at 30000 µg/mL [8] of the same compound?
Its zone of inhibition at 30000 µg/mL is 13.9 mm.

How did the “inhibition zone (IZ)” value [3] turn out when `CC(=O)NS(=O)(=O)c1ccc(N)cc1` [SULFACETAMIDE] was run?
Its value is 22.15 mm.

And the zone of inhibition at 30000 µg/mL [5]?
Its zone of inhibition at 30000 µg/mL is 21.2 mm.

What about the zone of inhibition at 20000 µg/mL [7] of the same compound?
Its zone of inhibition at 20000 µg/mL is 20.5 mm.

How did the zone of inhibition at 40000 µg/mL [1] turn out when `Nc1ccc(S(=O)(=O)Nc2ncccn2)cc1` [SULFADIAZINE] was run?
Its zone of inhibition at 40000 µg/mL is 20 mm.

And the “inhibition zone (IZ)” value [3]?
Its value is 39 mm.

What about the zone of inhibition at 30000 µg/mL [5] of the same compound?
Its zone of inhibition at 30000 µg/mL is 30 mm.

And the zone of inhibition at 20000 µg/mL [6]?
The zone of inhibition at 20000 µg/mL was 10 mm.

What about the zone of inhibition at 20000 µg/mL [7] of the same compound?
Its zone of inhibition at 20000 µg/mL is 28 mm.

What about the zone of inhibition at 30000 µg/mL [8] of the same compound?
The zone of inhibition at 30000 µg/mL was 15 mm.

Which results are given for `N=C(N)NS(=O)(=O)c1ccc(N)cc1` [SULFAGUANIDINE]?
zone of inhibition at 40000 µg/mL [1]: 18 mm; inhibition zone (IZ) [3]: 25 mm; zone of inhibition at 30000 µg/mL [5]: 25 mm; zone of inhibition at 20000 µg/mL [6]: 10 mm; zone of inhibition at 20000 µg/mL [7]: 20 mm; zone of inhibition at 30000 µg/mL [8]: 15 mm

What does the source list for `Cc1cc(NS(=O)(=O)c2ccc(N)cc2)no1` [SULFAMETHOXAZOLE]?
zone of inhibition at 40000 µg/mL [1]: 18 mm; inhibition zone (IZ) [3]: 28 mm; zone of inhibition at 30000 µg/mL [5]: 26 mm; zone of inhibition at 20000 µg/mL [6]: 15 mm; zone of inhibition at 20000 µg/mL [7]: 24 mm; zone of inhibition at 30000 µg/mL [8]: 15 mm

What does the source list for `Nc1ccc(S(N)(=O)=O)cc1` [SULFANILAMIDE]?
zone of inhibition at 40000 µg/mL [1]: 16 mm; inhibition zone (IZ) [3]: 28 mm; zone of inhibition at 30000 µg/mL [5]: 25 mm; zone of inhibition at 20000 µg/mL [6]: 10 mm; zone of inhibition at 20000 µg/mL [7]: 22 mm; zone of inhibition at 30000 µg/mL [8]: 12 mm
